Experimental data as given in patent publication US8765791B2, “Method of treating cancer using a neuropeptide Y 5R (NP Y5R) antagonist” (University Health Network, priority 2008, dated 2014).

Key:
human NPY1R = molecular target: T1, human NPY1R (Homo sapiens, UniProt P25929); conditions: at a concentration of 10 μM; cited from earlier work
T1 sequence (P25929 1-384): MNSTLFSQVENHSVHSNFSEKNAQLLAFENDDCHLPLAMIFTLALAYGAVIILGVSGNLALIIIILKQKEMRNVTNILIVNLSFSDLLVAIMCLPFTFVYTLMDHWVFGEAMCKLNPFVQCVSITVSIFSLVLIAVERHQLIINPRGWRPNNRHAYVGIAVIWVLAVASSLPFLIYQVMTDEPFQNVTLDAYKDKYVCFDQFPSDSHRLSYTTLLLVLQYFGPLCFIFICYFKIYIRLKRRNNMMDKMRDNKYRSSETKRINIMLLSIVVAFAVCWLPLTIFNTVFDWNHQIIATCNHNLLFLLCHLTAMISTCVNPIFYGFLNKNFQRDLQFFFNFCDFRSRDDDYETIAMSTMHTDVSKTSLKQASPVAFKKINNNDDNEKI

[1] = tested on: Colon cancer cells, HCT-15; assay: colon cancer xenograft model (Example 8); format: in vivo, CB17-SCID mice
Protocol: Colon cancer cells, HCT-15, (1×10^6) were implanted in CB17-SCID mice. The mice were treated with MK0557 at 30 mg/kg or vehicle (15% of 0.5%) CMC (carboxymethylcelulose) (low viscosity) and 85% of 0.2% Tween80 in water) intraperitoneally daily for the first week followed by once every two days injections.

mouse NPY6R = molecular target: T2, mouse NPY6R (Mus musculus, UniProt Q61212); conditions: at a concentration of 10 μM; cited from earlier work
T2 sequence (Q61212 1-371): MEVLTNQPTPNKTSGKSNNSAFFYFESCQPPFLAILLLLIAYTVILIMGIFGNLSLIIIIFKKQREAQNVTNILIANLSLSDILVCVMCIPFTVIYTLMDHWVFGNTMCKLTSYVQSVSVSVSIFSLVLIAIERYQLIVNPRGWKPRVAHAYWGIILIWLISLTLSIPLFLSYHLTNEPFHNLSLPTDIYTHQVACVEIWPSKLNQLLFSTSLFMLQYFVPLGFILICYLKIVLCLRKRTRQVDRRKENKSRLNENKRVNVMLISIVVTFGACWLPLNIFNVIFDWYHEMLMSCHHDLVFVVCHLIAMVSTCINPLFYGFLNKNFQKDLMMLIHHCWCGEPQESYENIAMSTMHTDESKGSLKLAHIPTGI

Rat glioma cells = assay: brain cancer xenograft model (Example 7); format: in vivo, CB17-SCID mice
Protocol: Rat glioma cells (2×10^6) were implanted in CB17-SCID mice. The mice were treated with MK0557 at 30 mg/kg, or vehicle (15% of 0.5%) CMC (carboxymethylcelulose) (low viscosity) and 85% of 0.2% Tween80 in water) intraperitoneally daily for the first week followed by once every two days injections.

[2] = tested on: Hodgkin Lymphoma cells, HD-MYZ; assay: Hodgkin lymphoma xenograft model (Example 12); format: in vivo, NOD-SCID mice; conditions: 30 mg/kg i.p. 3/week, approximately 2 weeks
Source text: Hodgkin lymphoma cells, HD-MYZ (1 million), were implanted s.c. on the right flank of NOD-SCID mice (Cat#001303, female, 4-6 weeks from Jackson laboratories, Bar Harbor, Me.). The mice were divided into four groups, 5 mice for each group. […] The tumor growth was monitored during the experiment. […] (FIG. 13)

human NPY4R = human NPY4R (Homo sapiens, UniProt P50391); conditions: at a concentration of 10 μM; cited from earlier work
human NPY4R, sequence (P50391 whole entry): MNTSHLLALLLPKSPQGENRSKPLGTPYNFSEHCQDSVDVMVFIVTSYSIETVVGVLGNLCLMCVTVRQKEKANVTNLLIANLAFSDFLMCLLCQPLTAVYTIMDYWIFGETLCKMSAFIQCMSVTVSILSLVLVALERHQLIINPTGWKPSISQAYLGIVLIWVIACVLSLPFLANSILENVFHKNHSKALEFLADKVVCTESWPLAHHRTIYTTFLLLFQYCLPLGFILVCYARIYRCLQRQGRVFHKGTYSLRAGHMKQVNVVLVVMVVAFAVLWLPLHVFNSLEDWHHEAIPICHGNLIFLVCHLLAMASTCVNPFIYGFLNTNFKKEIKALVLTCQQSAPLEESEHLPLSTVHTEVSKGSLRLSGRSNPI

HUV-EC-C cells = assay: in vitro angiogenesis assay, tube formation; format: cell-based; conditions: HUV-EC-C on ECMatrix, after 5 hours
Protocol: HUV-EC-C cells were purchased from ATCC and routinely cultured in Ham's F12K medium supplemented with 10% FBS, 2 mM L-glutamine, 1.5 g/L sodium bicarbonate, 0.1 mg/ml heparin and 0.03 mg/ml endothelial cell growth supplement (ECGS).
An In Vitro Angiogenesis Assay kit from Chemicon (Cat#ECL625) was used for testing HUV-EC-C tube formation. Cells were incubated on ECMatrix coated 96-well plate at 8×10^3 cells per well in growth medium with or without NPY, its antagonist MK0557, or DMSO as a control. Inhibition of in vitro endothelial tubule formation by MK0557 was quantitated from photographs after 5 hours by counting the number of tubes in the well (FIG. 7).

[3] = 30 mg/kg intraperitoneally daily first week then once every two days

Compound: O=C1O[C@]2(CC[C@H](C(=O)Nc3ccn(-c4ccccc4F)n3)CC2)c2cnccc21 [MK-0557, trans-N-[1-(2-fluorophenyl)-3-pyrazolyl]-3-oxospiro[6 azaisobenzofuran-1(3H), 1′-cyclohexane]-4′carboxamide]
- binding to human NPY1R (human NPY1R): does not significantly bind
- effect on mouse body weights ([1]; 30 mg/kg intraperitoneally): no obvious effect
- tumor growth [1, 3]: Tumor growth was inhibited
- binding to mouse NPY6R (mouse NPY6R): does not significantly bind
- effect on mouse body weights (Rat glioma cells; 30 mg/kg intraperitoneally): no obvious effect
- tumor growth (Rat glioma cells; [3]): Tumor growth was inhibited
- tumor growth [2]: inhibited tumor growth
- binding to human NPY4R (human NPY4R): does not significantly bind
- tube formation (HUV-EC-C cells): inhibits tube formation
